The record followed here is US20130065883A1 (Centro Nacional de Investigaceiones Oncologicas (CNIO), priority 2010, published 2013).

For assay [1], the target named is T1, PIM-2 (Homo sapiens, UniProt Q9P1W9).
T1 construct: histidine tag (N); made in house
As to the kind of experiment: PIM-2 biochemical assay (ADP Hunter).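 Further: recombinant N-terminally His-tagged human enzyme, kinase activity quantified by detection of ADP formed as the direct reaction product.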 As to conditions: semi-quantitative class; read-out: PIM2 IC50.

Assay [2] addresses T2, PIM-1 (Homo sapiens, UniProt P11309).
T2 construct: histidine tag (C); made in house
Briefly: PIM-1 biochemical assay (ADP Hunter).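 Further: recombinant human PIM-1 carrying a C-terminal His tag, kinase activity quantified via ADP formed as the direct enzymatic product.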 The note with it: semi-quantitative class; read-out: PIM1 IC50.

In assay [3] the target is T3, FLT3 (Homo sapiens, UniProt P36888).
T3 sequence (P36888 27-993): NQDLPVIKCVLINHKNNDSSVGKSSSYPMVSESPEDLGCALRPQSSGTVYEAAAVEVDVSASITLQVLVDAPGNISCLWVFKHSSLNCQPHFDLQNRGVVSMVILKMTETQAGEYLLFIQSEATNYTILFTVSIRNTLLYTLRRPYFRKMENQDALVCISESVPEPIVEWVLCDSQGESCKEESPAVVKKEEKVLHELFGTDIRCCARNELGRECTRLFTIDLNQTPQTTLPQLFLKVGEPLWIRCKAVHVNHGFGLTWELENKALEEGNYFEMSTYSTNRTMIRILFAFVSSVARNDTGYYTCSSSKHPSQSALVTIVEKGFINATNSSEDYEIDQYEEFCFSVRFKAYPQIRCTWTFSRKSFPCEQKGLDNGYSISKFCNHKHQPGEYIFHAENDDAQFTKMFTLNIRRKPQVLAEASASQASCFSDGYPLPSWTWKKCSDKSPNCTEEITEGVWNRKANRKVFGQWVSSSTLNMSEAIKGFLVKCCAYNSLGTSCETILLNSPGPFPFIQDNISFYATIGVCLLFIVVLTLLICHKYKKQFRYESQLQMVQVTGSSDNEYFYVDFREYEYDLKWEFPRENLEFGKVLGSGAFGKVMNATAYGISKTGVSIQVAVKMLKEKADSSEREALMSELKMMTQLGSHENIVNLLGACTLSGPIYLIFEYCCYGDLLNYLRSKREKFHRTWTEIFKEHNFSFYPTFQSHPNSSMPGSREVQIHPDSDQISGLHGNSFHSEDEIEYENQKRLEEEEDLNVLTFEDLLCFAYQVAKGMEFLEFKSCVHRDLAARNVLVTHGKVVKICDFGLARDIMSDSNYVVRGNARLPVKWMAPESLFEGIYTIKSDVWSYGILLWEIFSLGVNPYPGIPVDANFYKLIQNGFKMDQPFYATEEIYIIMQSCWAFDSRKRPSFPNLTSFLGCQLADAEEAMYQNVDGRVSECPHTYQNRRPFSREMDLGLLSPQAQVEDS
Briefly: FLT3 biochemical assay (ADP Hunter).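 Further: FLT3 enzymatic activity quantified through the ADP produced by the kinase reaction, detected with an ADP Hunter readout.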 As to conditions: semi-quantitative class.

A word on the IC50: it is the midpoint of a concentration-inhibition curve.

Some results are limits rather than exact numbers.

T2 sequence (P11309 whole entry): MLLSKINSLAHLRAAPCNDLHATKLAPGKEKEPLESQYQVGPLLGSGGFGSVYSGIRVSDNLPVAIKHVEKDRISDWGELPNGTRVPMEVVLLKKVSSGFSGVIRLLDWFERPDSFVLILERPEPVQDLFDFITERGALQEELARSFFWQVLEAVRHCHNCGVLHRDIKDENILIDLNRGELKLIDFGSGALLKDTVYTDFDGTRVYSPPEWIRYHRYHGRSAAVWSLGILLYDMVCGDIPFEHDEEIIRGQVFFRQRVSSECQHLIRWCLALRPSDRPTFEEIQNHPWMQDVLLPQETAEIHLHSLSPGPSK
T1 sequence (Q9P1W9 whole entry): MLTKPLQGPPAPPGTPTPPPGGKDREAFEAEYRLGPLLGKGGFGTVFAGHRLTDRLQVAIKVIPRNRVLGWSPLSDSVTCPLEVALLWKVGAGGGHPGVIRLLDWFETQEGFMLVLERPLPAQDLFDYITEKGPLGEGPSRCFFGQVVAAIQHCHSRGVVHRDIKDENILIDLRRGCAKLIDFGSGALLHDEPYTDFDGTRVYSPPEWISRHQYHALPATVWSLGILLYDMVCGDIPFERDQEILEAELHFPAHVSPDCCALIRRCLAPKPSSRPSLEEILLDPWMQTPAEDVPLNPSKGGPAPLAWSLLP

`CCOC(=O)c1cc2nnn(-c3ccc(OC)cc3)c2nc1NCc1ccc(F)cc1` [2-06]: the IC50 in assay [1] and in assay [2] was greater than 1000 nM in each case.
In the case of `CNCCCNc1ccc2nnn(-c3cccc(OC(F)(F)F)c3)c2n1` [2-50], the IC50 is greater than 1000 nM in assay [1] and 100 to 1000 nM in assay [2].
`CC(C)(C)OC(=O)N1CCC(Nc2ccc3nnn(-c4cccc(OC(F)(F)F)c4)c3n2)CC1` [2-33]: the IC50 in assay [1] and in assay [2] was greater than 1000 nM throughout.
Take `CCOC(=O)c1cc2nnn(-c3ccc(OC)cc3)c2nc1N1CCCCCC1` [2-07]: the 50% inhibitory concentration (IC50) in assay [1] and in assay [2] was greater than 1000 nM throughout.
Take `NS(=O)(=O)c1ccc(CCNc2ccc3nnn(-c4ccccc4)c3n2)cc1` [2-18]: the IC50 in assay [1] was greater than 1000 nM.
The same measure, in the same setting: the figure for `COc1ccc(-n2nnc3ccc(NCc4ccc(F)cc4)nc32)cc1` [2-02, (4-Fluoro-benzyl)-[3-(4-methoxy-phenyl)-3H-[1,2,3]triazolo[4,5-b]pyridin-5-yl]amine] is greater than 1000 nM.
As for `OCCNc1ccc2nnn(-c3cccc(OC(F)(F)F)c3)c2n1` [2-37], the IC50 in assay [1] is greater than 1000 nM; in assay [2], 100 to 1000 nM.
As to `FC(F)(F)Oc1cccc(-n2nnc3ccc(NCCN4CCNCC4)nc32)c1` [2-36], the results for the IC50 in assay [1], in assay [3] and in assay [2] were greater than 1000 nM, 100 to 1000 nM and 100 to 1000 nM, respectively.
In the case of `FC(F)(F)c1csc(-n2nnc3ccc(NCC4CCNCC4)nc32)n1` [2-88], the IC50 in assay [1] and in assay [3] was greater than 1000 nM in each case.
Turning to `OCCCNc1ccc2nnn(-c3cccc(OC(F)(F)F)c3)c2n1` [2-38], the IC50 is greater than 1000 nM in assay [1], greater than 1000 nM in assay [3] and 100 to 1000 nM in assay [2].
As to `COCCN1CCC(CNc2ccc3nnn(-c4cccc(OC(F)(F)F)c4)c3n2)CC1` [2-30], the IC50 in assay [1] and in assay [3] was greater than 1000 nM throughout.
As to `COc1ccc(-n2nnc3ccc(N4CCCCCC4)nc32)cc1` [2-01], the 50% inhibitory concentration (IC50) in assay [1] is greater than 1000 nM.
For `CCN1CCC2(CC1)CC(CNc1nc3c(cc1Cl)nnn3-c1cccc(OC(F)(F)F)c1)C2` [2-91], the half-maximal inhibitory concentration (IC50) in assay [1] is greater than 1000 nM; in assay [3] it was 100 to 1000 nM; in assay [2], 100 to 1000 nM.
Take `FC(F)(F)Oc1cccc(-n2nnc3ccc(NCC4CCN(CC5CC5)CC4)nc32)c1` [2-31]: the half-maximal inhibitory concentration (IC50) in assay [1] and in assay [3] was greater than 1000 nM each time.
For `COc1cccc(CCNc2ccc3nnn(-c4ccc(F)cc4)c3n2)c1OC` [2-17], the half-maximal inhibitory concentration (IC50) in assay [1] and in assay [2] was greater than 1000 nM in each case.
Regarding `NC(=O)CNc1ccc2nnn(-c3cccc(OC(F)(F)F)c3)c2n1` [2-40], the IC50 in assay [1] and in assay [2] was greater than 1000 nM throughout.
Take `FC(F)(F)Oc1cccc(-n2nnc3ccc(N4CCC5(CC4)CNC5)nc32)c1` [2-43]: the IC50 in assay [1] is greater than 1000 nM; in assay [3], greater than 1000 nM; in assay [2] it was 100 to 1000 nM.
Consider `CCCNc1ccc2nnn(-c3cccc(OC(F)(F)F)c3)c2n1` [2-09], for which the IC50 in assay [1] was greater than 1000 nM.
In the case of `FC(F)(F)Oc1cccc(-n2nnc3ccc(NCC4CCN(CC5CCOCC5)CC4)nc32)c1` [2-75], the IC50 was greater than 1000 nM in assay [1], greater than 1000 nM in assay [3] and 100 to 1000 nM in assay [2].
Regarding `CC(C)(C)OC(=O)N1CCN(CCNc2ccc3nnn(-c4cccc(OC(F)(F)F)c4)c3n2)CC1` [2-34], the concentration for half-maximal inhibition (IC50) in assay [1] and in assay [2] was greater than 1000 nM in each case.
For the compound `O=C1NCCC12CCN(c1ccc3nnn(-c4cccc(OC(F)(F)F)c4)c3n1)CC2` [2-51], the IC50 in assay [1] and in assay [2] was greater than 1000 nM throughout.
As for `O=C1CNC2(CCN(c3ccc4nnn(-c5cccc(OC(F)(F)F)c5)c4n3)CC2)C1` [2-52], the IC50 in assay [1] and in assay [2] was greater than 1000 nM throughout.
Take `FC(F)(F)Oc1cccc(-n2nnc3ccc(NC4CCOCC4)nc32)c1` [2-10]: the IC50 in assay [1] was greater than 1000 nM.
Turning to `Fc1ccc(-n2nnc3ccc(N4CCCCCC4)nc32)cc1` [2-12], in assay [1], the IC50 was greater than 1000 nM.
On to `O=C1CN(CCNc2ccc3nnn(-c4cccc(OC(F)(F)F)c4)c3n2)CCN1` [2-35], for which the IC50 in assay [1] is greater than 1000 nM; in assay [2], 100 to 1000 nM.
Regarding `FC(F)(F)Oc1cccc(-n2nnc3ccc(NCC4CCN(C5CC5)CC4)nc32)c1` [2-27], the IC50 in assay [1] is greater than 1000 nM; in assay [2], 100 to 1000 nM.
As for `CCOC(=O)c1cc2nnn(-c3ccc(OC)cc3)c2nc1NCC1CCN(C)CC1` [2-14, 3-(4-Methoxy-phenyl)-5-[(1-methyl-piperidin-4-ylmethyl)-amino]-3H-[1,2,3]triazolo[4,5-b]pyridine-6-carboxylic acid ethyl ester], the IC50 in assay [1] and in assay [2] was greater than 1000 nM in each case.
As for `CCOC(=O)c1cc2nnn(-c3ccc(O)cc3)c2nc1NCc1ccc(F)cc1` [2-15], the 50% inhibitory concentration (IC50) in assay [1] and in assay [2] was greater than 1000 nM throughout.
As for `c1ccc(CCNc2ccc3nnn(-c4ccccc4)c3n2)cc1` [2-11], in assay [1], the IC50 is greater than 1000 nM.
The compound `Oc1ccc(-n2nnc3ccc(N4CCCCCC4)nc32)cc1` [2-05] returned an IC50 in assay [3] greater than 1000 nM.
Consider `FC(F)(F)Oc1cccc(-n2nnc3ccc(N4CCC5(CCNCC5)CC4)nc32)c1` [2-45], for which the IC50 in assay [1] and in assay [3] was greater than 1000 nM each time.
In the case of `FC(F)(F)Oc1cccc(-n2nnc3ccc(N4CCC5(CCNC5)CC4)nc32)c1` [2-60], the concentration for half-maximal inhibition (IC50) in assay [1] and in assay [3] was greater than 1000 nM in each case.
For the compound `CC(=O)NCCNc1ccc2nnn(-c3cccc(OC(F)(F)F)c3)c2n1` [2-41], the IC50 in assay [1] and in assay [2] was greater than 1000 nM each time.
Consider `FC(F)(F)Oc1cccc(-n2nnc3cc(Cl)c(NCC4CC5(CCNCC5)C4)nc32)c1` [2-77], for which the half-inhibitory concentration (IC50) was greater than 1000 nM in assay [1], greater than 1000 nM in assay [3] and 100 to 1000 nM in assay [2].
As to `NC(=O)CCNc1ccc2nnn(-c3cccc(OC(F)(F)F)c3)c2n1` [2-42], the half-inhibitory concentration (IC50) in assay [1] is greater than 1000 nM; in assay [2], 100 to 1000 nM.
Consider `COc1ccc(-n2nnc3ccc(NCc4cccc(Cl)c4)nc32)cc1` [2-03], for which the IC50 in assay [1] and in assay [2] was greater than 1000 nM throughout.
As for `Fc1ccc(-n2nnc3ccc(N4CCOCC4)nc32)cc1` [2-13], in assay [1], the IC50 is greater than 1000 nM.
Take `O=CNCCN1CCN(c2ccc3nnn(-c4cccc(OC(F)(F)F)c4)c3n2)CC1` [2-29]: the IC50 in assay [1] was greater than 1000 nM; in assay [2] it was 100 to 1000 nM.
Regarding `Nc1ccc(-n2nnc3ccc(NCC4CCNCC4)nc32)cn1` [2-71], the IC50 was greater than 1000 nM in assay [1] and 100 to 1000 nM in assay [3].
`CCN1CCOC2(CCN(c3ccc4nnn(-c5cccc(OC(F)(F)F)c5)c4n3)CC2)C1` [2-90]: the figures for the IC50 in assay [1], in assay [3] and in assay [2] were greater than 1000 nM, 100 to 1000 nM and greater than 1000 nM, respectively.
With `CCOC(=O)c1cc2nnn(-c3ccc(O)cc3)c2nc1N1CCCCCC1` [2-16], the half-maximal inhibitory concentration (IC50) in assay [1] and in assay [2] was greater than 1000 nM each time.
With `CN(C)C(=O)CN1CCC(CNc2ccc3nnn(-c4cccc(OC(F)(F)F)c4)c3n2)CC1` [2-22], the half-inhibitory concentration (IC50) in assay [1] was greater than 1000 nM.
Turning to `CN(C)CCNc1ccc2nnn(-c3cccc(OC(F)(F)F)c3)c2n1` [2-39], the IC50 in assay [1] and in assay [2] was greater than 1000 nM each time.
Consider `FC(F)(F)Oc1cccc(-n2nnc3ccc(N4CC5CNCC5C4)nc32)c1` (stereo not drawn) [2-46], for which the IC50 in assay [1] and in assay [3] was greater than 1000 nM throughout.
Take `FC(F)(F)Oc1cccc(-n2nnc3ccc(NCCc4cccnc4)nc32)c1` [2-08]: in assay [1], the IC50 was greater than 1000 nM.
On to `CC(C)CN1CCC(CNc2ccc3nnn(-c4cccc(OC(F)(F)F)c4)c3n2)CC1` [2-74], for which the IC50 was greater than 1000 nM in assay [1], greater than 1000 nM in assay [3] and 100 to 1000 nM in assay [2].
As for `CCCNc1ccc2nnn(-c3ccc(O)cc3)c2n1` [2-24], the concentration for half-maximal inhibition (IC50) in assay [1] was greater than 1000 nM.
Take `FC(F)(F)Oc1cccc(-n2nnc3ccc(NCC4CC4)nc32)c1` [2-20]: the IC50 is greater than 1000 nM in assay [1] and 100 to 1000 nM in assay [2].
As to `FC(F)(F)Oc1cccc(-n2nnc3ccc(N4CCC5(CCNC5)C4)nc32)c1` (stereo not drawn) [2-64], the IC50 in assay [1] was greater than 1000 nM; in assay [3] it was greater than 1000 nM; in assay [2], 100 to 1000 nM.
Consider `O=C1NCCN1CCNc1ccc2nnn(-c3cccc(OC(F)(F)F)c3)c2n1` [2-48], for which the IC50 in assay [1] is greater than 1000 nM; in assay [2], 100 to 1000 nM.
In the case of `O=C(CN1CCC(CNc2ccc3nnn(-c4cccc(OC(F)(F)F)c4)c3n2)CC1)C1CC1` [2-26], in assay [1], the IC50 was greater than 1000 nM.
As to `COc1cc(NC2CCOCC2)nc2c1nnn2-c1cccc(N(C)C)c1` [2-93], the IC50 in assay [3] was greater than 1000 nM; in assay [2] it was 100 to 1000 nM.
As to `CC(=O)Nc1ccc(-n2nnc3ccc(NCC4CCN(C)CC4)nc32)cc1` [2-23], the IC50 in assay [1] and in assay [2] was greater than 1000 nM throughout.
